Source: patent publication US7659071B2, “Methods and compositions relating to HPV-associated pre-cancerous and cancerous growths, including CIN” (Board of Regents, the University of Texas System, priority 2001, dated 2010)
Where “and” joins values, the source holds several entries; their conditions need not be identical. Equal values may be shown once.

What was measured:
PBMC [1] = assay: T-cell proliferation assay ([3H]thymidine incorporation, stimulation index); type: cell-based, human
Experimental: The proliferative responses of PBMCs from different samples can be determined by the standard ^3[H]thymidine incorporation assay as described in published articles (Nehete, 1996; Nehete, 1995). The significance of T-cell proliferative responses to the individual E6 and E7 peptides (in terms of stimulation index [SI]) can be calculated as the fold increase of ^3[H]thymidine incorporation by cells exposed to the peptide over that by the control to which no peptide was added. An SI value of at least 2.0, including at least about 2.1, 2.2, 2.3, 2.4, 2.5, 2.6, 2.7, 2.8, 2.9, 3.0, 3.1, 3.2, 3.3, 3.4, 3.5, 3.6, 3.7, 3.8, 3.9, 4.0 or more, which are considered positive responses. Generally, an SI value is calculated by measuring the amount of radioactivity (cpm) in media from cells incubated with the peptide(s) and dividing by the amount of radioactivity in media from cells not incubated with peptide(s) (media alone).
Heparinized blood was collected from the study participants by venipuncture. PBMCs were isolated by centrifugation on a Ficoll-Hypaque density gradient ([…]; Sigma Chemical Co., St. Louis, Mo.). The proliferative responses of PBMC from different individuals after stimulation with PHA, c-mos peptide, or individual E6 and E7 peptides (Table 4) were determined using the [^3H]thymidine incorporation assay as previously described Nehete et al., 1996). Briefly, each sample was seeded in triplicate in 96-well microtiter plates and incubated for 7 days at 37° C. in a humidified 5% CO2 atmosphere. During the final 16-18 h, 1 μCi of ^3[H]thymidine (6.7 Ci/mmol; ICN Biomedicals, Inc., Costa Mesa, Calif.) was added. The cells were harvested onto filter strips to estimate ^3[H]thymidine incorporation. The specific radioactivity of cells treated with various additions was calculated in each case by subtracting the counts per minute (cpm) values obtained with cells cultured in medium alone. […] The significance of T-cell proliferative responses to the individual E6 and E7 peptides (in terms of stimulation index [SI]) was calculated as the fold increase of [^3H]thymidine incorporation by cells exposed to the peptide over that by the control to which no peptide was added. An SI value ≧3.0, which was considered a positive response, was used for all statistical analyses to determine the significance of proliferative responses and the association with disease-free or disease-recurrence status.

PBMC [2] = assay: Cytokine analysis of PBMC culture supernatants (Cytoscreen immunoassay kits); type: cell-based, human; details: 48 h; for IL-4 production, number of patients positive/number tested: positive = above kit sensitivity 2.0 pg/ml; for IL-10 production, number of patients positive/number tested: positive = above kit sensitivity 5.0 pg/ml; for EL-12 production, number of patients positive/number tested: positive = above kit sensitivity IL-12 = 1.0 pg/ml; for IFN-γ production, number of patients positive/number tested: positive = above kit sensitivity 4.0 pg/ml; for EL-2 production, number of patients positive/number tested: positive = above kit sensitivity IL-2 = 8.7 pg/ml
Experimental: Cryopreserved PBMC were used for these assays. The PBMC (1×10^5) were incubated with various HPV peptides in RPMI-1640 medium (containing 10% fetal calf serum) in triplicate wells of 96-well round-bottom plates for 48 h at 37° C. Supernatants (100 μl) were removed from each well after centrifugation and stored frozen at −70° C. in another 96-well plate. The plates were then thawed and the supernatants assayed for various cytokines (IFN-γ, IL-2, IL-4, IL-10, and IL-12) using the Cytoscreen immunoassay kits (Biosource International, Camarillo, Calif.) according to the manufacturer's instructions.

Row | Sequence | level of proliferative responses compared with the other peptides (PBMC [1]) | Proliferative Response No (SI < 3.0) to specific peptide, number (%) of women (PBMC [1]; Group 3 (disease-free), n = 22) | IL-4 production, number of patients positive/number tested (PBMC [2]; Group 3 (n = 8)) | IL-10 production, number of patients positive/number tested (PBMC [2]; Group 3 (n = 8)) | EL-12 production, number of patients positive/number tested (PBMC [2]; Group 3 (n = 8)) | IL-4 production, number of patients positive/number tested (PBMC [2]; Group 4 (n = 6)) | IFN-γ production, number of patients positive/number tested (PBMC [2]; Group 4 (n = 6)) | IL-10 production, number of patients positive/number tested (PBMC [2]; Group 4 (n = 6)) | EL-2 production, number of patients positive/number tested (PBMC [2]; Group 4 (n = 6)) | EL-12 production, number of patients positive/number tested (PBMC [2]; Group 4 (n = 6)) | Proliferative Response No (SI < 3.0) to specific peptide, number (%) of women (PBMC [1]; Group 4 (recurrence), n = 10) | stimulation index (SI), proliferative response (PBMC [1]; women in the four study groups)
1 | RAHYNIVTF (listed as Human papillomavirus) [R9F, E7 peptide from HPV-16, aa 49-57] | higher levels of proliferative responses | 12 (54%) | – | – | – | – | – | – | – | – | – | –
2 | QAEPDRAHYNIVTFCCKCD (listed as Human papillomavirus) [Q19D, E7 peptide from HPV-16, aa 44-62] | higher levels of proliferative responses | 9 (41%) | none and 0/8 | 3 and 3/8 | 6 of 8 and 6/8 | 1 of the 6 and 1/6 | 0/6 | 6 of 6 and 6/6 | 0/6 | 1/6 | 10 (100%) | –
3 | STRTPEDSNSLGT (Murine) [c-mos peptide, peptide from the c-mos protooncogene, aa 158-170, used as a negative control, reference compound] | – | – | – | – | – | – | – | – | – | – | – | < 2.0
4 | VYDFAFRDLC (listed as Human papillomavirus) [V10C, E6 peptide from HPV-16, aa 49-58] | higher levels of proliferative responses | 11 (50%) | – | – | – | – | – | – | – | – | 10 (100%) | –
5 | QLLRREVYDFAFRDL (listed as Human papillomavirus) [Q15L, E6 peptide from HPV-16, aa 43-57] | higher levels of proliferative responses | 11 (50%) | none and 0/8 | 3 and 3/8 | 3 of 8 and 3/8 | 1 of the 6 and 1/6 | 0/6 | 5 of 6 and 5/6 | 0/6 | 0/6 | 10 (100%) | –
